# Legend:
# Rhizobium etli = test: microbe, parasite or virus in culture; format: cell-based
# Sinorhizobium meliloti = test: microbe, parasite or virus in culture; format: cell-based
# Bradyrhizobium japonicum = test: microbe, parasite or virus in culture; format: cell-based
# [1] = test system: Agrobacterium tumefaciens; test: microbe, parasite or virus in culture; format: cell-based
# Mesorhizobium loti = test: microbe, parasite or virus in culture; format: cell-based
# Liberibacter crescens = test: microbe, parasite or virus in culture; format: cell-based
# Xanthomonas citri = test: microbe, parasite or virus in culture; format: cell-based, Xanthomonas citri subsp. citri
# A. tumefaciens = test: microbe, parasite or virus in culture; format: cell-based; conditions: Agrobacterium tumefaciens, 24 h
# SecA of Ca. L. asiaticus = SecA of Ca. L. asiaticus (Candidatus Liberibacter asiaticus, UniProt A0ABM5NFG5); test: biochemical
structure (smiles),measurement,setting,value
"COc1ccc(C2Nc3ccc(C(=O)c4ccccc4)cc3NC3=C2C(=O)CC(c2ccccc2)C3)cc1 (centres unmarked) [SA5, 7-Benzoyl-11-(4-methoxy-phenyl)-3-phenyl-2,3,4,5,10,11-hexahydro-1H-dibenzo[b,e] [1,4]diazepin-1-one]",MBC,Rhizobium etli; 24 hrs,16 µg/mL
same,MIC,Rhizobium etli; 24 hrs,16 µg/mL
same,MBC,Rhizobium etli; 120 hrs,32 µg/mL
same,MIC,Rhizobium etli; 120 hrs,32 µg/mL
same,MBC,Sinorhizobium meliloti,64 µg/mL
same,MIC,Sinorhizobium meliloti,32 µg/mL
same,MBC,Bradyrhizobium japonicum; 24 hrs,16 µg/mL
same,MIC,Bradyrhizobium japonicum; 24 hrs,16 µg/mL
same,MBC,Bradyrhizobium japonicum; 120 hrs,32 µg/mL
same,MIC,Bradyrhizobium japonicum; 120 hrs,32 µg/mL
same,MBC,[1],64 µg/mL
same,MIC,[1],32 µg/mL
same,MBC,Mesorhizobium loti,32 µg/mL
same,MIC,Mesorhizobium loti,16 µg/mL
same,MBC,Liberibacter crescens; 24 h,16 µg/mL
same,MIC,Liberibacter crescens; 24 h,8 µg/mL
same,MBC,Liberibacter crescens; 120 h,32 µg/mL
same,MIC,Liberibacter crescens; 120 h,16 µg/mL
same,MBC,Xanthomonas citri,128 µg/mL
same,MIC,Xanthomonas citri,64 µg/mL
"O=C1CCCC2=C1C(c1cccs1)Nc1ccc(C(=O)c3ccccc3)cc1N2 (centres unmarked) [Compound C20, 7-benzoyl-11-(2-thienyl)-2,3,4,5,10,11-hexahydro-1H-diabenzo[b,e] [1,4]diazepin-1-one]",MBC,Rhizobium etli; 24 hrs,64 µg/mL
same,MIC,Rhizobium etli; 24 hrs,32 µg/mL
same,MBC,Rhizobium etli; 120 hrs,64 µg/mL
same,MIC,Rhizobium etli; 120 hrs,32 µg/mL
same,MBC,Sinorhizobium meliloti,16 µg/mL
same,MIC,Sinorhizobium meliloti,16 µg/mL
same,MBC,Bradyrhizobium japonicum; 24 hrs,32 µg/mL
same,MIC,Bradyrhizobium japonicum; 24 hrs,16 µg/mL
same,MBC,Bradyrhizobium japonicum; 120 hrs,64 µg/mL
same,MIC,Bradyrhizobium japonicum; 120 hrs,16 µg/mL
same,MBC,[1],128 µg/mL
same,MIC,[1],32 µg/mL
same,MBC,Mesorhizobium loti,16 µg/mL
same,MIC,Mesorhizobium loti,8 µg/mL
same,MBC,Liberibacter crescens; 24 h,16 µg/mL
same,MIC,Liberibacter crescens; 24 h,16 µg/mL
same,MBC,Liberibacter crescens; 120 h,32 µg/mL
same,MIC,Liberibacter crescens; 120 h,32 µg/mL
same,MBC,Xanthomonas citri,32 µg/mL
same,MIC,Xanthomonas citri,16 µg/mL
same,MBC,A. tumefaciens,256 µg/mL
same,IC50,SecA of Ca. L. asiaticus,440 nM
"Nc1c(C(=O)O)sc2nc(-c3ccccc3)cc(-c3ccc(F)cc3)c12 [SA2, 3-Amino-4-(4-fluorophenyl)-6-phenyl-thieno[2,3-b]pyridine-2-carboxylic acid]",MBC,Rhizobium etli; 24 hrs,32 µg/mL
same,MIC,Rhizobium etli; 24 hrs,16 µg/mL
same,MBC,Rhizobium etli; 120 hrs,64 µg/mL
same,MIC,Rhizobium etli; 120 hrs,32 µg/mL
same,MBC,Sinorhizobium meliloti,32 µg/mL
same,MIC,Sinorhizobium meliloti,16 µg/mL
same,MBC,Bradyrhizobium japonicum; 24 hrs,64 µg/mL
same,MIC,Bradyrhizobium japonicum; 24 hrs,32 µg/mL
same,MBC,Bradyrhizobium japonicum; 120 hrs,128 µg/mL
same,MIC,Bradyrhizobium japonicum; 120 hrs,64 µg/mL
same,MBC,[1],64 µg/mL
same,MIC,[1],32 µg/mL
same,MBC,Mesorhizobium loti,32 µg/mL
same,MIC,Mesorhizobium loti,16 µg/mL
same,MBC,Liberibacter crescens; 24 h,16 µg/mL
same,MIC,Liberibacter crescens; 24 h,16 µg/mL
same,MBC,Liberibacter crescens; 120 h,32 µg/mL
same,MIC,Liberibacter crescens; 120 h,32 µg/mL
same,MBC,Xanthomonas citri,64 µg/mL
same,MIC,Xanthomonas citri,32 µg/mL
"O=C1CCCC2=C1[C@H](c1ccccc1)Nc1ccc(C(=O)c3ccccc3)cc1N2 [SA4, (11S)-7-Benzoyl-11-phenyl-2,3,4,5,10,11-hexahydro-1H-dibenzo[b,e] [1,4]diazepin-1-one]",MBC,Rhizobium etli; 24 hrs,16 µg/mL
same,MIC,Rhizobium etli; 24 hrs,8 µg/mL
same,MBC,Rhizobium etli; 120 hrs,32 µg/mL
same,MIC,Rhizobium etli; 120 hrs,16 µg/mL
same,MBC,Sinorhizobium meliloti,64 µg/mL
same,MIC,Sinorhizobium meliloti,32 µg/mL
same,MBC,Bradyrhizobium japonicum; 24 hrs,16 µg/mL
same,MIC,Bradyrhizobium japonicum; 24 hrs,8 µg/mL
same,MBC,Bradyrhizobium japonicum; 120 hrs,16 µg/mL
same,MIC,Bradyrhizobium japonicum; 120 hrs,16 µg/mL
same,MBC,[1],64 µg/mL
same,MIC,[1],16 µg/mL
same,MBC,Mesorhizobium loti,32 µg/mL
same,MIC,Mesorhizobium loti,16 µg/mL
same,MBC,Liberibacter crescens; 24 h,32 µg/mL
same,MIC,Liberibacter crescens; 24 h,16 µg/mL
same,MBC,Liberibacter crescens; 120 h,64 µg/mL
same,MIC,Liberibacter crescens; 120 h,32 µg/mL
same,MBC,Xanthomonas citri,64 µg/mL
same,MIC,Xanthomonas citri,32 µg/mL
"O=C1CC(c2ccccc2)CC2=C1C(c1cccs1)Nc1ccc(C(=O)c3ccccc3)cc1N2 (centres unmarked) [SA8, 7-Benzoyl-3-phenyl-11-(2-thienyl)-2,3,4,5,10,11-hexahydro-1H-dibenzo[b,e] [1,4]diazepin-1-one]",MBC,Rhizobium etli; 24 hrs,16 µg/mL
same,MIC,Rhizobium etli; 24 hrs,8 µg/mL
same,MBC,Rhizobium etli; 120 hrs,32 µg/mL
same,MIC,Rhizobium etli; 120 hrs,16 µg/mL
same,MBC,Sinorhizobium meliloti,32 µg/mL
same,MIC,Sinorhizobium meliloti,16 µg/mL
same,MBC,Bradyrhizobium japonicum; 24 hrs,16 µg/mL
same,MIC,Bradyrhizobium japonicum; 24 hrs,8 µg/mL
same,MBC,Bradyrhizobium japonicum; 120 hrs,32 µg/mL
same,MIC,Bradyrhizobium japonicum; 120 hrs,32 µg/mL
same,MBC,[1],128 µg/mL
same,MIC,[1],32 µg/mL
same,MBC,Mesorhizobium loti,32 µg/mL
same,MIC,Mesorhizobium loti,16 µg/mL
same,MBC,Liberibacter crescens; 24 h,16 µg/mL
same,MIC,Liberibacter crescens; 24 h,16 µg/mL
same,MBC,Liberibacter crescens; 120 h,32 µg/mL
same,MIC,Liberibacter crescens; 120 h,32 µg/mL
same,MBC,Xanthomonas citri,64 µg/mL
same,MIC,Xanthomonas citri,32 µg/mL
"CCOc1ccc(C2Nc3ccc(C(=O)c4ccccc4)cc3NC3=C2C(=O)CCC3)cc1 (centres unmarked) [SA7, 7-Benzoyl-11-(4-ethoxy-phenyl)-2,3,4,5,10,11-hexahydro-1H-dibenzo[b,e] [1,4]diazepin-1-one]",MBC,Rhizobium etli; 24 hrs,16 µg/mL
same,MIC,Rhizobium etli; 24 hrs,16 µg/mL
same,MBC,Rhizobium etli; 120 hrs,32 µg/mL
same,MIC,Rhizobium etli; 120 hrs,32 µg/mL
same,MBC,Sinorhizobium meliloti,32 µg/mL
same,MIC,Sinorhizobium meliloti,16 µg/mL
same,MBC,Bradyrhizobium japonicum; 24 hrs,32 µg/mL
same,MIC,Bradyrhizobium japonicum; 24 hrs,32 µg/mL
same,MBC,Bradyrhizobium japonicum; 120 hrs,32 µg/mL
same,MIC,Bradyrhizobium japonicum; 120 hrs,32 µg/mL
same,MBC,[1],64 µg/mL
same,MIC,[1],16 µg/mL
same,MBC,Mesorhizobium loti,32 µg/mL
same,MIC,Mesorhizobium loti,16 µg/mL
same,MBC,Liberibacter crescens; 24 h,16 µg/mL
same,MIC,Liberibacter crescens; 24 h,16 µg/mL
same,MBC,Liberibacter crescens; 120 h,32 µg/mL
same,MIC,Liberibacter crescens; 120 h,32 µg/mL
same,MBC,Xanthomonas citri,64 µg/mL
same,MIC,Xanthomonas citri,32 µg/mL

# From patent US9521850B2 (University of Florida Research Foundation, Incorporated, priority 2012, dated 2016)
